Data reported in US20230263762A1, “COMPOSITION AND METHOD FOR TREATING INFECTIONS” (priority 2020, published 2023).

Columns and labels:
SARS-CoV-2 = test: Direct injection of Sx mixture or its components into virus suspension, Vero E6 plaque assay; type: cell-based; settings: for activity of the component alone: direct injection (FIGS. 20 and 21)
[1] = tested on: SARS-CoV-2 (USA-WA1/2020 strain); test: Direct injection into viral suspension, plaque assay on Vero E6 cells; type: cell-based; settings: for reduction of viral burden by individual components: 1.4 and 3.9 µls propionic acid, 0.6 and 1.1 µls isoamyl hexanoates; for decline in viral burden: 360 mins post-addition
[2] = biological target: RBD of the SARS-CoV-2 spike protein to ACE2 (Severe acute respiratory syndrome coronavirus 2, UniProt P0DTC2); settings: cited from earlier work
[3] = propionic acid alone, direct injection

Which “reduction in activity of the virus” value (SARS-CoV-2; acid alone at 3.9 µL) does the source give for `CCC(=O)O` [propionic acid] here?
Its value is “about 0.5 log”.

And the “activity of the component alone” value (SARS-CoV-2)?
Its value is “only has marginal biological activity”.

What about the “time to complete inactivation of the virus” value (SARS-CoV-2; propionic acid alone at 7.7 µL) of the same compound?
The value was 220 min.

What about the “volume of acid necessary for relative immediate inactivation of the virus” value (SARS-CoV-2; [3]) of the same compound?
The value was “at least 15.4 µL”.

What about the “volume of acid necessary to get any appreciable activity” value (SARS-CoV-2; [3]) of the same compound?
The value was “up to 7.7 µL”.

What about the “reduction of viral burden by individual components” value [1] of the same compound?
Its value is “minimal reduction of viral burden”.

And the “decline in viral burden” value ([1]; 1.4 µls alone)?
The value was 0.29 log10 PFU/ml.

What about the “decline in viral burden” value ([1]; 3.9 µls alone) of the same compound?
The value was 0.98 log10 PFU/ml.

And the “time to undetectable levels of virus” value ([1]; 7.7 µl alone, direct injection)?
The value was 240 min.

And the “time to undetectable viral burden” value ([1]; 15.4 µls alone, direct injection)?
Its value is 15 min.

And the “EC50 volume over the entire study” value ([1]; direct injection, entire 360 min study (AUC of viral burden-time), 37° C.)?
Its value is 6.2 µls.

What does the source list for GluGluLeuGlu?
reduction of the binding affinity of RBD to ACE2 ([2]; addition of peptide to SARS-CoV-2): 34%; reduction of virus activity ([2]; peptide added to the virus): 34%

For isoamyl hexanoates, which “activity of the component alone” value (SARS-CoV-2) is on record?
The value was “no lasting activity”.

What about the “reduction in activity of the virus” value (SARS-CoV-2; esters alone (1.1 µL), at about 100 min) of the same compound?
Its value is ~1 log.

And the “reduction in virus activity” value (SARS-CoV-2; esters alone, highest concentration of 4.6 µL, over 300 minutes)?
Its value is 1 order of magnitude.

And the “general reduction in virus activity” value (SARS-CoV-2; esters alone, within about 30 min, over the range of concentrations tested)?
Its value is ~1 log.

And the “reduction of viral burden by individual components” value [1]?
Its value is “minimal reduction of viral burden”.

What about the “suppression of SARS-CoV-2 replication, component alone” value ([1]; direct injection, all treatment arms (FIG. 7B)) of the same compound?
Its value is “substantially less effective”.
